Experimental data as given in article PMC5645531, “Probing the Single Key Amino Acid Responsible for the Novel Catalytic Function of ent-Kaurene Oxidase Supported by NADPH-Cytochrome P450 Reductases in Tripterygium wilfordii” (Frontiers in Plant Science, 2017).

Target: T1, TwKO (Tripterygium wilfordii, UniProt A0A2S0H3R9)
T1 construct: full-length ORF co-expressed from pESC-Leu with a TwCPR (all four tested, TwCPR3 best) in Saccharomyces cerevisiae BY-T20; with NADPH--cytochrome P450 reductase 3
T1 sequence (A0A2S0H3R9 1-509): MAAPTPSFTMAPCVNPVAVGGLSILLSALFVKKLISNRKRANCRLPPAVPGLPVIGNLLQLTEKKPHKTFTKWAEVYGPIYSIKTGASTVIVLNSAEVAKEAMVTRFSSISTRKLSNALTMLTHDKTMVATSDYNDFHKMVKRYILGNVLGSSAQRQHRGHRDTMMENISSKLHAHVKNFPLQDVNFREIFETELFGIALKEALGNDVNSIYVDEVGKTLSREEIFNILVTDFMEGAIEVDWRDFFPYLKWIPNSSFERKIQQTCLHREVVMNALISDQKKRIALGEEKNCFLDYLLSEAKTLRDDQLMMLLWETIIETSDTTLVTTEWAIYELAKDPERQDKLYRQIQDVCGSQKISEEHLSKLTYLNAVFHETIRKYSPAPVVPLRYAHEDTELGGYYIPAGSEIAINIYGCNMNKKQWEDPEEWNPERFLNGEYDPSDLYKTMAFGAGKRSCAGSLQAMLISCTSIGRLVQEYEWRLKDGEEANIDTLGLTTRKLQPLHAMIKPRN
T1 sequence (A0A808MGE5 1-690 partner): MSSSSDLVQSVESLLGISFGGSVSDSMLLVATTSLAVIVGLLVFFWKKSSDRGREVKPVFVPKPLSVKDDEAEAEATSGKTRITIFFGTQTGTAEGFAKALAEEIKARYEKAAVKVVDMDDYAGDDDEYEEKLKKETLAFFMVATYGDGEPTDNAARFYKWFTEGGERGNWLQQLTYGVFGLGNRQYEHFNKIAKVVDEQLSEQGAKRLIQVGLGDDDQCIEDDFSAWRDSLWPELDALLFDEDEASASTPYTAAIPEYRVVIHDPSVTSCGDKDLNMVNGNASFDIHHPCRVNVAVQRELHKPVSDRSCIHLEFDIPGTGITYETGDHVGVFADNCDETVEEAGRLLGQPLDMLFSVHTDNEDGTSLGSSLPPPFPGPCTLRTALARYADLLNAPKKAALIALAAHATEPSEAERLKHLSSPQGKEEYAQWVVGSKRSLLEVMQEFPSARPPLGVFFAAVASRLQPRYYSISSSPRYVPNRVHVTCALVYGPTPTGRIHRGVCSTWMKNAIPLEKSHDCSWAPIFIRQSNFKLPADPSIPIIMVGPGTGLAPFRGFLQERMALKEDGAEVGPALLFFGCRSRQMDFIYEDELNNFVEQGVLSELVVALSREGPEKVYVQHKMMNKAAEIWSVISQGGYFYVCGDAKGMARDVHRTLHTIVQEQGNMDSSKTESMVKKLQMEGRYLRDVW
Test: GC-MS of methylated yeast culture extracts
Format: cell-based
Settings: co-expressed TwCPR; substrate made in vivo by TwCPS3/TwKSL2:A608M; product ent-kaurenoic acid; 30 °C

C=C1C[C@@]23CC[C@@H]4C(C)(C)CCC[C@@]4(C)[C@@H]2CC[C@@H]1C3 [ent-kaurene]
GC-MS of methylated yeast culture extracts: three-stage oxidation of ent-kaurene to ent-kaurenoic acid
